Experimental data published in paper PMC12655526, “Effective Oral Delivery of Teriparatide Using Organoclay—Polymethacrylate Nanocomposites for Osteoporosis Therapy” (Pharmaceutics, 2025).

Assays:
pepsin = target: T1, pepsin (Sus scrofa, UniProt P00791); experiment: Gastrointestinal stability in simulated gastric fluid (SGF); assay type: in vitro ADME; settings: SGF pH 1.2, 5 μg/mL pepsin, 0.5 mg/mL teriparatide, 37 °C, 100 rpm; CD after release in PBS pH 7.4
T1 construct: purchased Sigma-Aldrich Co. (St Louis, MO, USA)
T1 sequence (P00791 60-385): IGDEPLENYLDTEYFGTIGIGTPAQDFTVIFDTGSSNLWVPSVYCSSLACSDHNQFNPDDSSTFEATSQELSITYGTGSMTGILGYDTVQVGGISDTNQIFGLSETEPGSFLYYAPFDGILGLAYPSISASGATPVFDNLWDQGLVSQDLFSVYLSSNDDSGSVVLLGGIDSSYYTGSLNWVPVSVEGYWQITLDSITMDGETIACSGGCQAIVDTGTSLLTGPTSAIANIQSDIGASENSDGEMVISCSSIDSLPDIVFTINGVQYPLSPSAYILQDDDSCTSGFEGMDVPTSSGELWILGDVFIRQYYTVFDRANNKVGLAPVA
Method: (§1) The conformational integrity of teriparatide encapsulated within nanocomplexes was assessed under simulated gastrointestinal conditions using enzyme-supplemented media. Specifically, samples were incubated in simulated gastric fluid (SGF; pH 1.2, containing 5 μg/mL pepsin) or simulated intestinal fluid (SIF; pH 7.4, supplemented with 20 μg/mL trypsin). Nanoparticles corresponding to 0.5 mg/mL of teriparatide were dispersed in 1 mL of either SGF or SIF and incubated at 37 °C with stirring at 100 rpm. Digestion was quenched with 0.2 mL of 0.2 M NaOH (for SGF) or 0.1 M HCl (for SIF) at predefined times. The nanoparticles were then isolated via centrifugation, redispersed in PBS (pH 7.4), and incubated for 2 h. The conformation of teriparatide following its release from nanoparticles was analyzed by CD spectroscopy to verify structural stability.

trypsin = experiment: Gastrointestinal stability in simulated intestinal fluid (SIF); assay type: in vitro ADME; settings: SIF pH 7.4, 20 μg/mL trypsin, 0.5 mg/mL teriparatide, 37 °C, 100 rpm; CD after release in PBS pH 7.4
Method: as §1

[1] = tested on: dexamethasone-induced osteoporosis rats; experiment: Serum bone-turnover biomarkers in dexamethasone-induced osteoporosis rats; assay type: in vivo, rat; settings: 8 weeks daily, oral EE/AC-Teri 16 mg/kg or sc teriparatide 0.04 mg/kg, n = 6
Method: The therapeutic effect of orally delivered EE/AC-Teri was examined in dexamethasone-induced osteoporosis rats under an Institutional Animal Care and Use committee (IACUC)-approved protocol (IACUC-2023-039-2). Male Sprague–Dawley rats (280–300 g) were randomly allocated to four groups (n = 6 each). The control group received a daily subcutaneous saline. In the osteoporotic model group, 0.1 mg/kg dexamethasone was administered subcutaneously each day to induce bone loss. The injectable teriparatide treatment group was given a combination of daily subcutaneous dexamethasone (0.1 mg/kg) and teriparatide (0.04 mg/kg). The final group was administered EE/AC-Teri orally (16 mg/kg of teriparatide), in combination with daily subcutaneous dexamethasone (0.1 mg/kg). After 8 week-treatment, blood was drawn for biochemical analysis. […] Serum osteocalcin (OCN), procollagen type I N-terminal propeptide (PINP), C-terminal telopeptide of type I collagen (CTx), tartrate-resistant acid phosphatase 5b (TRAP5b), and calcium were quantified with commercial ELISA kits (Thermo Fisher Scientific, Waltham, MA, USA) according to the manufacturer’s instructions. […] Quantitative parameters describing trabecular bone microarchitecture were assessed using Analyze software (ver 12.0; AnalyzeDirect, Overland Park, KS, USA).

[2] = tested on: dexamethasone-induced osteoporosis rats; experiment: Micro-CT and histology of femora in dexamethasone-induced osteoporosis rats; assay type: in vivo, rat
Method: The therapeutic effect of orally delivered EE/AC-Teri was examined in dexamethasone-induced osteoporosis rats under an Institutional Animal Care and Use committee (IACUC)-approved protocol (IACUC-2023-039-2). Male Sprague–Dawley rats (280–300 g) were randomly allocated to four groups (n = 6 each). The control group received a daily subcutaneous saline. In the osteoporotic model group, 0.1 mg/kg dexamethasone was administered subcutaneously each day to induce bone loss. The injectable teriparatide treatment group was given a combination of daily subcutaneous dexamethasone (0.1 mg/kg) and teriparatide (0.04 mg/kg). The final group was administered EE/AC-Teri orally (16 mg/kg of teriparatide), in combination with daily subcutaneous dexamethasone (0.1 mg/kg). After 8 week-treatment, blood was drawn for biochemical analysis. Blood (0.6 mL) was collected once on day 57 via the jugular vein under 1.5% isoflurane anesthesia in a Tabletop Anesthesia System (Harvard Apparatus, Cambridge, MA, USA). Serum osteocalcin (OCN), procollagen type I N-terminal propeptide (PINP), C-terminal telopeptide of type I collagen (CTx), tartrate-resistant acid phosphatase 5b (TRAP5b), and calcium were quantified with commercial ELISA kits (Thermo Fisher Scientific, Waltham, MA, USA) according to the manufacturer’s instructions. At study completion, animals were euthanized using a 30%/min displacement of chamber air with compressed CO2. Both femora were excised and fixed in 4% neutral-buffered formalin for 48 h. Fixed bones were processed for histological and structural analysis. Some samples were paraffin-embedded and sectioned for histological examination using hematoxylin and eosin (H&E) staining. The remaining specimens were subjected to structural evaluation via micro-computed tomography (micro-CT; the Korea Basic Science Institute). Images were acquired using a 90 kV/80 μA X-ray source over a 4 min acquisition time, with the scan field confined to 10 mm. Reconstructed images were generated at an isotropic voxel resolution of 20 μm. Quantitative parameters describing trabecular bone microarchitecture were assessed using Analyze software (ver 12.0; AnalyzeDirect, Overland Park, KS, USA).

[3] = 8 weeks daily, oral EE/AC-Teri 16 mg/kg or sc teriparatide 0.04 mg/kg, dexamethasone rats, femur

CC[C@H](C)[C@H](NC(=O)[C@H](CCC(=O)O)NC(=O)[C@H](CO)NC(=O)[C@@H](NC(=O)[C@@H](N)CO)C(C)C)C(=O)N[C@@H](CCC(N)=O)C(=O)N[C@@H](CC(C)C)C(=O)N[C@@H](CCSC)C(=O)N[C@@H](Cc1cnc[nH]1)C(=O)N[C@@H](CC(N)=O)C(=O)N[C@@H](CC(C)C)C(=O)NCC(=O)N[C@@H](CCCCN)C(=O)N[C@@H](Cc1cnc[nH]1)C(=O)N[C@@H](CC(C)C)C(=O)N[C@@H](CC(N)=O)C(=O)N[C@@H](CO)C(=O)N[C@@H](CCSC)C(=O)N[C@@H](CCC(=O)O)C(=O)N[C@@H](CCCN=C(N)N)C(=O)N[C@H](C(=O)N[C@@H](CCC(=O)O)C(=O)N[C@@H](Cc1c[nH]c2ccccc12)C(=O)N[C@@H](CC(C)C)C(=O)N[C@@H](CCCN=C(N)N)C(=O)N[C@@H](CCCCN)C(=O)N[C@@H](CCCCN)C(=O)N[C@@H](CC(C)C)C(=O)N[C@@H](CCC(N)=O)C(=O)N[C@@H](CC(=O)O)C(=O)N[C@H](C(=O)N[C@@H](Cc1cnc[nH]1)C(=O)N[C@@H](CC(N)=O)C(=O)N[C@@H](Cc1ccccc1)C(=O)O)C(C)C)C(C)C [teriparatide]
Conformational integrity of teriparatide in SGF (CD spectra) (pepsin): pronounced conformational alterations in both SGF and SIF | Conformational integrity of teriparatide in SIF (CD spectra) (trypsin): pronounced conformational alterations in both SGF and SIF | Serum calcium / hypercalcemia [1]: did not produce sustained hypercalcemia | Trabecular architecture by histology (H&E) [2, 3]: partially restored architecture | Trabecular architecture by micro-CT imaging [2, 3]: mitigated these lesions, preserving a denser, interconnected trabecular network | Bone mineral density (BMD) ([2]; micro-CT, 8 weeks, oral EE/AC-Teri 16 mg/kg or sc teriparatide 0.04 mg/kg, versus dexamethasone control, n = 6): significantly restored | Bone volume fraction (BV/TV) ([2]; micro-CT, 8 weeks, sc teriparatide 0.04 mg/kg, versus dexamethasone control, n = 6): significantly restored
